Publication PMC5845353, “The selective cathepsin K inhibitor MIV-711 attenuates joint pathology in experimental animal models of osteoarthritis” (Journal of Translational Medicine, 2018)
Several values for one entry are separate records, joined by “and”; a condition that tells them apart may be missing. Identical values can stand only once.

How the values were obtained:
[1] = tested on: plasma proteins; assay: Fraction bound to plasma proteins, dog; format: in vitro ADME
[2] = tested on: plasma proteins; assay: Fraction bound to plasma proteins, rabbit; format: in vitro ADME
[3] = tested on: rabbits subjected to anterior cruciate ligament transection (ACLT); assay: Rabbit ACLT study, modified Mankin scoring; format: in vivo
Procedure: The femora and tibias were decalcified, embedded in paraffin, sectioned at 5-7 µm at two different levels separated by approximately 2 mm, and stained with safranin O and toluidine blue.
Both tibial plateaus and femoral condyles were subjected to semi-quantitative scoring using a modified Mankin scoring system. Slides were evaluated in animal ID order, i.e. in random order with respect to treatment, so that the reader was effectively blinded to treatment assignment.
Analysis was performed on the tibial plateaus and femoral condyles at two levels (Level 1 and 2) for each:
Group 1) sham + vehicle; Group 2) ACLT + vehicle; Group 3) ACLT + MIV-711, 30 µmol/kg (low dose) and Group 4) ACLT + MIV-711, 100 µmol/kg (high dose).

[4] = tested on: dogs subjected to partial medial meniscectomy; assay: Dog partial medial meniscectomy study, sclerosis of subchondral bone and bone area; format: in vivo
Excerpt: Sclerosis of subchondral bone (an indication of altered load-bearing) was described and documented for femur using a comparison of medial to lateral, but was not included in the overall cartilage degeneration scores. This parameter was scored based on percent width of the medial femur with obviously thickened subchondral bone according to the following criteria: 0=normal 1=up to 10% of femur width has thickened trabeculae 2=11-30 % of femur width has thickened trabeculae 3=31-60 % of femur width has thickened trabeculae 4=61-90 % of femur width has thickened trabeculae 5=>90% of femur width has thickened trabeculae An additional measure of bone area was performed as follows: The photo file was opened and a fixed segment of 1000 by 400 pixels was selected with the bottom left and right corners touching the tidemark: The selected segment was opened in a new file and segmented into fourths: Black lines were drawn on the three segmenting lines in areas of no bone: Lengths of each individual drawn segment were summed per line for a total length of area of no bone, then divided by the total length of the image and calculated into a percent. Percent of no bone was calculated for each of the three segmented lines and then averaged for a mean percent of no bone for the image.

[5] = target: rabbit cathepsin K enzyme; design: method as in PMID 29743078; details: read-out: Ki against rabbit cathepsin K enzyme; cited from earlier work
[6] = target: cathepsin K from human; design: method as in PMID 29743078; details: read-out: Ki against cathepsin K from human; cited from earlier work
[7] = Group 3: ACLT + MIV-711, 30 µmol/kg (low dose)
[8] = Group 4: ACLT + MIV-711, 100 µmol/kg (high dose)
[9] = dog partial medial meniscectomy, group Mean
[10] = dog partial medial meniscectomy, versus Vehicle group

SMILES: C#C[C@@H]1CN(C(=O)[C@H](CC(C)C)NC(=O)c2ccc(-c3nc(N4CCN(C)CC4)sc3F)cc2)[C@@H]2C(=O)CO[C@H]12 [MIV-711]
- fraction bound to plasma proteins [1]: 90%
- fraction bound to plasma proteins [2]: 92%
- effect on Mankin scores ([3]; ACLT rabbits, 30 and 100 µmol/kg): did not affect
- Total Mankin score Level 1+2_FC, mean [3, 7]: 58.86
- Total Mankin score Level 1+2_FC, median [3, 7]: 58.00
- Total Mankin score Level 1+2_LFC, mean [3, 7]: 21.14
- Total Mankin score Level 1+2_LFC, median [3, 7]: 17.00
- Total Mankin score Level 1+2_LTP, mean [3, 7]: 9.71
- Total Mankin score Level 1+2_LTP, median [3, 7]: 10.00
- Total Mankin score Level 1+2_MFC, mean [3, 7]: 37.71
- Total Mankin score Level 1+2_MFC, median [3, 7]: 43.00
- Total Mankin score Level 1+2_MTP, mean [3, 7]: 16.71
- Total Mankin score Level 1+2_MTP, median [3, 7]: 16.00
- Total Mankin score Level 1+2_TP, mean [3, 7]: 26.43
- Total Mankin score Level 1+2_TP, median [3, 7]: 26.00
- Total Mankin score Level 1_FC, mean [3, 7]: 32.14
- Total Mankin score Level 1_FC, median [3, 7]: 32.00
- Total Mankin score Level 1_LFC, mean [3, 7]: 12.00
- Total Mankin score Level 1_LFC, median [3, 7]: 10.00
- Total Mankin score Level 1_LTP, mean [3, 7]: 5.57
- Total Mankin score Level 1_LTP, median [3, 7]: 4.00
- Total Mankin score Level 1_MFC, mean [3, 7]: 20.14
- Total Mankin score Level 1_MFC, median [3, 7]: 23.00
- Total Mankin score Level 1_MTP, mean [3, 7]: 9.86
- Total Mankin score Level 1_MTP, median [3, 7]: 9.00
- Total Mankin score Level 1_TP, mean [3, 7]: 15.43
- Total Mankin score Level 1_TP, median [3, 7]: 16.00
- Total Mankin score Level 2_FC, mean [3, 7]: 26.71
- Total Mankin score Level 2_FC, median [3, 7]: 26.00
- Total Mankin score Level 2_LFC, mean [3, 7]: 9.14
- Total Mankin score Level 2_LFC, median [3, 7]: 7.00
- Total Mankin score Level 2_LTP, mean [3, 7]: 4.14
- Total Mankin score Level 2_LTP, median [3, 7]: 4.00
- Total Mankin score Level 2_MFC, mean [3, 7]: 17.57
- Total Mankin score Level 2_MFC, median [3, 7]: 20.00
- Total Mankin score Level 2_MTP, mean [3, 7]: 6.86
- Total Mankin score Level 2_MTP, median [3, 7]: 6.00
- Total Mankin score Level 2_TP, mean [3, 7]: 11.00
- Total Mankin score Level 2_TP, median [3, 7]: 12.00
- Total Mankin score Level 1+2_FC, mean [3, 8]: 49.71
- Total Mankin score Level 1+2_FC, median [3, 8]: 51.00
- Total Mankin score Level 1+2_LFC, mean [3, 8]: 21.14
- Total Mankin score Level 1+2_LFC, median [3, 8]: 21.00
- Total Mankin score Level 1+2_LTP, mean [3, 8]: 12.71
- Total Mankin score Level 1+2_LTP, median [3, 8]: 12.00
- Total Mankin score Level 1+2_MFC, mean [3, 8]: 28.57
- Total Mankin score Level 1+2_MFC, median [3, 8]: 27.00
- Total Mankin score Level 1+2_MTP, mean [3, 8]: 17.43
- Total Mankin score Level 1+2_MTP, median [3, 8]: 14.00
- Total Mankin score Level 1+2_TP, mean [3, 8]: 30.14
- Total Mankin score Level 1+2_TP, median [3, 8]: 27.00
- Total Mankin score Level 1_FC, mean [3, 8]: 25.43
- Total Mankin score Level 1_FC, median [3, 8]: 29.00
- Total Mankin score Level 1_LFC, mean [3, 8]: 10.57
- Total Mankin score Level 1_LFC, median [3, 8]: 10.00
- Total Mankin score Level 1_LTP, mean [3, 8]: 6.29
- Total Mankin score Level 1_LTP, median [3, 8]: 7.00
- Total Mankin score Level 1_MFC, mean [3, 8]: 14.86
- Total Mankin score Level 1_MFC, median [3, 8]: 15.00
- Total Mankin score Level 1_MTP, mean [3, 8]: 9.29
- Total Mankin score Level 1_MTP, median [3, 8]: 8.00
- Total Mankin score Level 1_TP, mean [3, 8]: 15.57
- Total Mankin score Level 1_TP, median [3, 8]: 16.00
- Total Mankin score Level 2_FC, mean [3, 8]: 24.29
- Total Mankin score Level 2_FC, median [3, 8]: 23.00
- Total Mankin score Level 2_LFC, mean [3, 8]: 10.57
- Total Mankin score Level 2_LFC, median [3, 8]: 10.00
- Total Mankin score Level 2_LTP, mean [3, 8]: 6.43
- Total Mankin score Level 2_LTP, median [3, 8]: 6.00
- Total Mankin score Level 2_MFC, mean [3, 8]: 13.71
- Total Mankin score Level 2_MFC, median [3, 8]: 13.00
- Total Mankin score Level 2_MTP, mean [3, 8]: 8.14
- Total Mankin score Level 2_MTP, median [3, 8]: 7.00
- Total Mankin score Level 2_TP, mean [3, 8]: 14.57
- Total Mankin score Level 2_TP, median [3, 8]: 14.00
- Bone Score ([4]; MIV-711 group mean, sclerosis of subchondral bone): 3.07
- % inhibition, Bone Score ([4]; MIV-711 group vs vehicle): 4%
- Percent Length of no Bone, LFC Mean [4, 9]: 57%
- Percent Length of no Bone, LFC Site 1 [4, 9]: 59%
- Percent Length of no Bone, LFC Site 2 [4, 9]: 58%
- Percent Length of no Bone, LFC Site 3 [4, 9]: 54%
- Percent Length of no Bone, MFC Mean [4, 9]: 39%
- Percent Length of no Bone, MFC Site 1 [4, 9]: 42%
- Percent Length of no Bone, MFC Site 2 [4, 9]: 39%
- Percent Length of no Bone, MFC Site 3 [4, 9]: 36%
- Percent Length of no Bone, Overall Mean [4, 9]: 48%
- Percent Length of no Bone, LFC Site 2 ([4]; dog partial medial meniscectomy, individual animal, LFC site 2): 50% and 62% and 55% and 63% and 66% and 57% and 51% and 54% and 59% and 45% and 60% and 72%
- Percent Length of no Bone, LFC Site 3 ([4]; dog partial medial meniscectomy, individual animal, LFC site 3): 42% and 48% and 49% and 64% and 60% and 58% and 45% and 59% and 47% and 46% and 56% and 71% and 52%
- Percent Length of no Bone, MFC Site 1 ([4]; dog partial medial meniscectomy, individual animal, MFC site 1): 47% and 50% and 24% and 35% and 52% and 38% and 36% and 57% and 44% and 48% and 51% and 21%
- Percent Length of no Bone, MFC Site 2 ([4]; dog partial medial meniscectomy, individual animal, MFC site 2): 32% and 42% and 21% and 39% and 46% and 38% and 52% and 37% and 34% and 51% and 27% and 57% and 26% and 36%
- Percent Length of no Bone, MFC Site 3 ([4]; dog partial medial meniscectomy, individual animal, MFC site 3): 34% and 33% and 21% and 36% and 51% and 24% and 32% and 22% and 49% and 44% and 41% and 40%
- Percent Length of no Bone, LFC Site 1 ([4]; dog partial medial meniscectomy, individual animal, lateral femoral condyle site 1): 58% and 64% and 49% and 53% and 63% and 54% and 70% and 57% and 61% and 46% and 66% and 67%
- Percent Length of no Bone, LFC Mean ([4]; dog partial medial meniscectomy, individual animal, mean of LFC sites 1-3): 50% and 58% and 51% and 60% and 63% and 56% and 55% and 54% and 52% and 70%
- Percent Length of no Bone, MFC Mean ([4]; dog partial medial meniscectomy, individual animal, mean of MFC sites 1-3): 38% and 42% and 22% and 37% and 50% and 33% and 51% and 35% and 30% and 52% and 46%
- Percent Length of no Bone, Overall Mean ([4]; dog partial medial meniscectomy, individual animal, overall mean LFC and MFC): 44% and 50% and 37% and 48% and 56% and 45% and 53% and 54% and 46% and 49%
- % inhibition of Percent Length of no Bone, LFC Mean [4, 10]: 1%
- % inhibition of Percent Length of no Bone, LFC Site 1 [4, 10]: -4%
- % inhibition of Percent Length of no Bone, LFC Site 2 [4, 10]: 2%
- % inhibition of Percent Length of no Bone, LFC Site 3 [4, 10]: 6%
- % inhibition of Percent Length of no Bone, MFC Mean [4, 10]: -10%
- % inhibition of Percent Length of no Bone, MFC Site 1 [4, 10]: -12%
- % inhibition of Percent Length of no Bone, MFC Site 2 [4, 10]: 1%
- % inhibition of Percent Length of no Bone, MFC Site 3 [4, 10]: -21%
- % inhibition of Percent Length of no Bone, Overall Mean [4, 10]: -3%
- effects on subchondral bone sclerosis and bone area at the microscopic level ([4]; dog, 30 µmol/kg): no significant effects
- Bone Score ([4]; individual dogs of MIV-711 group, scoring of sclerosis of subchondral bone): 5 and 3 and 4 and 2 and 1
- Ki [5]: 3.3 nM
- Ki [6]: 0.98 nM
